Assay results: ChEMBL document CHEMBL5329193, “Targeting Mycobacterium tuberculosis iron-scavenging tools: a recent update on siderophores inhibitors” (RSC Med Chem, 2023)
pIC50: −log10 of the molar value. Values after ≈ are worked out from the molar mass of the structure shown.

Columns and labels:
[1] = test system: Mycobacterium tuberculosis variant bovis; assay: Antimycobacterial activity against Mycobacterium bovis BCG assessed as reduction in microbial growth incubated for 15 days by resazurin based reduction assay; format: functional; conditions: 360 h, time 15 day
[2] = test system: Mycobacterium tuberculosis variant bovis; assay: Antimycobacterial activity against Mycobacterium bovis BCG ATCC 35734 assessed as inhibition of bacterial growth incubated for 5 days by broth microdilution method; format: functional, organism-based; conditions: BCG ATCC 35734, 120 h
[3] = test system: Mycobacterium tuberculosis variant bovis; assay: Antitubercular activity against Mycobacterium bovis BCG assessed as bacterial growth inhibition incubated for 15 days by resazurin based reduction assay; format: functional; conditions: 360 h, time 15 day

| SMILES | MIC99 [1] [µM] | pIC50 [2] | MIC99 [3] [µM] |
| --- | --- | --- | --- |
| N#Cc1cc(OCCOc2ccccc2)cc(-c2ccc(C(=O)O)o2)c1 | 63 | 4.92 |  |
| N#Cc1cc(-c2ccc(C(=O)O)o2)cc(C(F)(F)F)c1 |  |  | 125 (≈ 35.1 µg/mL) |
